The values that follow come from patent US20100204203A1, “Chemical Compounds 637: Pyridopyrimidinediones as PDE4 Inhibitors” (priority 2007, published 2010).

The assay deals with recombinant Human Phosphodiesterase B2 (PDE4B2) (Homo sapiens, UniProt Q07343). The assay can be described thus: Human Phosphodiesterase B2 Radiometric Assay (yttrium silicate SPA beads, [3H]cyclic AMP). In kind it is biochemical. The settings on record: recombinant human PDE4B2, radiometric SPA assay, 8 nM [3H]cyclic AMP; read-out: PDE4B2 pIC50 (converted). A digest of the protocol:
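Read-out is scintillation proximity: yttrium silicate beads (with 18 mM ZnSO4, added to stop the reaction) bind 5′AMP formed from 8 nM [3H]cAMP over 20 min. Beforehand, compound and 0.1 mg/mL enzyme were preincubated 30 min at 30 °C in pH 7.5 HEPES buffer with MgCl2, EGTA and Brij 35; pIC50 values were curve-fitted.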

Chain of recombinant Human Phosphodiesterase B2 (PDE4B2) (Q07343 1-564 isoform Q07343-2): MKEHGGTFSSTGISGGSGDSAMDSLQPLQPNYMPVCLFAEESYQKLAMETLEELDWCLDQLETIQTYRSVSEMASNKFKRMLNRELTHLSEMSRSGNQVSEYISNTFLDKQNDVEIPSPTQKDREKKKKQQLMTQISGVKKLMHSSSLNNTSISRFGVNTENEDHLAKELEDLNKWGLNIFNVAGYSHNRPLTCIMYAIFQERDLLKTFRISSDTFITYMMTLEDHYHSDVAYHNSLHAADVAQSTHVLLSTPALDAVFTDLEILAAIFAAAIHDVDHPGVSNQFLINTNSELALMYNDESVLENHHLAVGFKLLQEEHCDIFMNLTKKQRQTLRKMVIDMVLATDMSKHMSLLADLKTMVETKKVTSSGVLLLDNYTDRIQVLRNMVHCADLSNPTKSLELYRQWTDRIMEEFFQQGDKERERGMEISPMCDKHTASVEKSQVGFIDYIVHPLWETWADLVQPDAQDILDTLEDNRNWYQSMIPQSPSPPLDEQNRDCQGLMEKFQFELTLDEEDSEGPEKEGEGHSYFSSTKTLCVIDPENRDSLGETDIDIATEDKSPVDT

Consider `CC(=O)N[C@H]1CC[C@@H](n2c(=O)c3cc(F)cnc3n(-c3cccc(-c4ccc(CN(C)C)cc4)c3)c2=O)CC1` [Example 89, N-{cis-4-[1-{4′-[(dimethylamino)methyl]biphenyl-3-yl}-6-fluoro-2,4-dioxo-1,4-dihydropyrido[2,3-d]pyrimidin-3(2H)-yl]cyclohexyl}acetamide], for which the IC50 is 2 nM.
As to `CN(Cc1ccccc1)C(=O)c1cccc(-n2c(=O)n([C@H]3CC[C@@H](NC(=O)c4cn5cc(F)ccc5n4)CC3)c(=O)c3cc(F)cnc32)c1` [Example 90, N-{cis-4-[1-(3-{[benzyl(methyl)amino]carbonyl}phenyl)-6-fluoro-2,4-dioxo-1,4-dihydropyrido[2,3-d]pyrimidin-3(2H)-yl]cyclohexyl}-6-fluoroimidazo[1,2-a]pyridine-2-carboxamide], the IC50 was 1.26 nM.
In the case of `N[C@H]1CC[C@@H](n2c(=O)c3cc(F)cnc3n(-c3cccc(C(=O)O)c3)c2=O)CC1` [Example 91, 3-[3-(cis-4-aminocyclohexyl)-6-fluoro-2,4-dioxo-3,4-dihydropyrido[2,3-d]pyrimidin-1(2H)-yl]benzoic acid] it was 7.94 nM; in that of `O=C(NCc1ccccc1)c1cccc(-n2c(=O)n([C@H]3CC[C@@H](NC(=O)c4cn5cc(F)ccc5n4)CC3)c(=O)c3cc(F)cnc32)c1` [Example 92, N-{cis-4-[1-{3-[(benzylamino)carbonyl]phenyl}-6-fluoro-2,4-dioxo-1,4-dihydropyrido[2,3-d]pyrimidin-3(2H)-yl]cyclohexyl}-6-fluoroimidazo[1,2-a]pyridine-2-carboxamide], 0.631 nM.
Turning to `CN(C)CCCC(=O)N[C@H]1CC[C@@H](n2c(=O)c3cc(F)cnc3n(-c3cccc(-c4ccccc4)c3)c2=O)CC1` [Example 93, N-[cis-4-(1-biphenyl-3-yl-6-fluoro-2,4-dioxo-1,4-dihydropyrido[2,3-d]pyrimidin-3(2H)-yl)cyclohexyl]-4-(dimethylamino)butanamide], the IC50 was 5.01 nM.
In the case of `CN(C)Cc1ccc(-c2cccc(-n3c(=O)n([C@H]4CC[C@@H](NC(=O)c5cn6cc(F)ccc6n5)CC4)c(=O)c4cc(F)cnc43)c2)c(O)c1` [Example 94, N-{cis-4-[1-{4′-[(dimethylamino)methyl]-2′-hydroxybiphenyl-3-yl}-6-fluoro-2,4-dioxo-1,4-dihydropyrido[2,3-d]pyrimidin-3(2H)-yl]cyclohexyl}-6-fluoroimidazo[1,2-a]pyridine-2-carboxamide] it was 0.316 nM; in that of `CC(C)NCCCc1ccc(-c2cccc(-n3c(=O)n([C@H]4CC[C@@H](NC(=O)c5cn6cc(F)ccc6n5)CC4)c(=O)c4cc(F)cnc43)c2)cc1` [Example 95, 6-fluoro-N-{cis-4-[6-fluoro-1-{4′-[3-(isopropylamino)propyl]biphenyl-3-yl]-2,4-dioxo-1,4-dihydropyrido[2,3-d]pyrimidin-3(2H)-yl]cyclohexyl}imidazo[1,2-a]pyridine-2-carboxamide], 0.02 nM; in that of `O=C(N[C@H]1CC[C@@H](n2c(=O)c3cc(F)cnc3n(-c3cccc(-c4ccc(CCCNCCCO)cc4)c3)c2=O)CC1)c1cn2cc(F)ccc2n1` [Example 96, 6-fluoro-N-{cis-4-[6-fluoro-1-(4′-{3-[(3-hydroxypropyl)amino]propyl}biphenyl-3-yl)-2,4-dioxo-1,4-dihydropyrido[2,3-d]pyrimidin-3(2H)-yl]cyclohexyl}imidazo[1,2-a]pyridine-2-carboxamide], 0.0126 nM.
In the case of `O=C(N[C@H]1CC[C@@H](n2c(=O)c3cc(F)cnc3n(-c3cccc(-c4ccc(CCCN5CCNCC5)cc4)c3)c2=O)CC1)c1cn2cc(F)ccc2n1` [Example 97, 6-fluoro-N-{cis-4-[6-fluoro-2,4-dioxo-1-[4′-(3-piperazin-1-ylpropyl)biphenyl-3-yl]-1,4-dihydropyrido[2,3-d]pyrimidin-3(2H)-yl]cyclohexyl}imidazo[1,2-a]pyridine-2-carboxamide], the IC50 is 0.00631 nM.
For `CC(C)NCCc1ccc(-c2cccc(-n3c(=O)n([C@H]4CC[C@@H](NC(=O)c5cn6cc(F)ccc6n5)CC4)c(=O)c4cc(F)cnc43)c2)cc1` [Example 98, 6-fluoro-N-{cis-4-[6-fluoro-1-{4′-[2-(isopropylamino)ethyl]biphenyl-3-yl}-2,4-dioxo-1,4-dihydropyrido[2,3-d]pyrimidin-3(2H)-yl]cyclohexyl}imidazo[1,2-a]pyridine-2-carboxamide] the value was 0.126 nM; for `CN(C)CCc1ccc(-c2cccc(-n3c(=O)n([C@H]4CC[C@@H](NC(=O)c5cn6cc(F)ccc6n5)CC4)c(=O)c4cc(F)cnc43)c2)cc1` [Example 99, N-{cis-4-[1-{4′-[2-(dimethylamino)ethyl]biphenyl-3-yl}-6-fluoro-2,4-dioxo-1,4-dihydropyrido[2,3-d]pyrimidin-3(2H)-yl]cyclohexyl}-6-fluoroimidazo[1,2-a]pyridine-2-carboxamide], 0.126 nM; for `CN1CCN(CCc2ccc(-c3cccc(-n4c(=O)n([C@H]5CC[C@@H](NC(=O)c6cn7cc(F)ccc7n6)CC5)c(=O)c5cc(F)cnc54)c3)cc2)CC1` [Example 100, 6-fluoro-N-{cis-4-[6-fluoro-1-{4′-[2-(4-methylpiperazin-1-yl)ethyl]biphenyl-3-yl}-2,4-dioxo-1,4-dihydropyrido[2,3-d]pyrimidin-3(2H)-yl]cyclohexyl}imidazo[1,2-a]pyridine-2-carboxamide], 0.00794 nM.
As to `CN(CCc1ccc(-c2cccc(-n3c(=O)n([C@H]4CC[C@@H](NC(=O)c5cn6cc(F)ccc6n5)CC4)c(=O)c4cc(F)cnc43)c2)cc1)C(C)(C)C` [Example 101, N-{cis-4-[1-(4′-{2-[tert-butyl(methyl)amino]ethyl}biphenyl-3-yl)-6-fluoro-2,4-dioxo-1,4-dihydropyrido[2,3-d]pyrimidin-3(2H)-yl]cyclohexyl}-6-fluoroimidazo[1,2-a]pyridine-2-carboxamide], the IC50 is 0.1 nM.
For the compound `O=C(N[C@H]1CC[C@@H](n2c(=O)c3cc(F)cnc3n(-c3cccc(-c4ccc(CCN5CCNCC5)cc4)c3)c2=O)CC1)c1cn2cc(F)ccc2n1` [Example 102, 6-fluoro-N-{cis-4-[6-fluoro-2,4-dioxo-1-[4′-(2-piperazin-1-ylethyl)biphenyl-3-yl]-1,4-dihydropyrido[2,3-d]pyrimidin-3 (2H)-yl]cyclohexyl}imidazo[1,2-c]pyridine-2-carboxamide], the IC50 is 0.00794 nM.
On to `O=C(N[C@H]1CC[C@@H](n2c(=O)c3cc(F)cnc3n(-c3cccc(-c4ccc(O)cc4CN4CCOCC4)c3)c2=O)CC1)c1cn2cc(F)ccc2n1` [Example 103, 6-fluoro-N-{cis-4-[6-fluoro-1-[4′-hydroxy-2′-(morpholin-4-ylmethyl)biphenyl-3-yl]-2,4-dioxo-1,4-dihydropyrido[2,3-d]pyrimidin-3(2H)-yl]cyclohexyl}imidazo[1,2-a]pyridine-2-carboxamide], for which the IC50 was 0.00158 nM.
In the case of `CN(C)Cc1cc(O)ccc1-c1cccc(-n2c(=O)n([C@H]3CC[C@@H](NC(=O)c4cn5cc(F)ccc5n4)CC3)c(=O)c3cc(F)cnc32)c1` [Example 104, N-{cis-4-[1-{2′-[(dimethylamino)methyl]-4′-hydroxybiphenyl-3-yl}-6-fluoro-2,4-dioxo-1,4-dihydropyrido[2,3-d]pyrimidin-3(2H)-yl]cyclohexyl}-6-fluoroimidazo[1,2-a]pyridine-2-carboxamide] it was 0.00316 nM; in that of `CC(C)(C)OC(=O)N1CCN(CC(=O)N[C@H]2CC[C@@H](n3c(=O)c4cc(F)cnc4n(-c4cccc(-c5ccccc5)c4)c3=O)CC2)CC1` [Example 105, tert-butyl 4-(2-{[cis-4-(1-biphenyl-3-yl-6-fluoro-2,4-dioxo-1,4-dihydropyrido[2,3-d]pyrimidin-3(2H)-yl)cyclohexyl]amino}-2-oxoethyl)piperazine-1-carboxylate], 0.0251 nM; in that of `O=C(CN1CCNCC1)N[C@H]1CC[C@@H](n2c(=O)c3cc(F)cnc3n(-c3cccc(-c4ccccc4)c3)c2=O)CC1` [Example 106, N-[cis-4-(1-biphenyl-3-yl-6-fluoro-2,4-dioxo-1,4-dihydropyrido[2,3-d]pyrimidin-3(2H)-yl)cyclohexyl]-2-piperazin-1-ylacetamide], 3.16 nM.
For `O=c1c2cc(F)cnc2n(-c2cccc(-c3ccccc3)c2)c(=O)n1[C@@H]1CCNC1` [Example 107, 1-biphenyl-3-yl-6-fluoro-3-[(3R)-pyrrolidin-3-yl]pyrido[2,3-d]pyrimidine-2,4(1H,3H)-dione] the value was 100 nM; for `Cc1cc(C(=O)N[C@H]2CC[C@@H](n3c(=O)c4cc(F)cnc4n(-c4cccc(-c5ccc(CN6CCOCC6)cc5)c4)c3=O)CC2)nn1C` [Example 108, N-{cis-4-[6-fluoro-1-[4′-(morpholin-4-ylmethyl)biphenyl-3-yl]-2,4-dioxo-1,4-dihydropyrido[2,3-d]pyrimidin-3(2H)-yl]cyclohexyl}-1,5-dimethyl-1H-pyrazole-3-carboxamide], 0.00794 nM.
Turning to `O=C(N[C@H]1CC[C@@H](n2c(=O)c3cc(F)cnc3n(-c3cccc(-c4ccc(CN5CCOCC5)cc4)c3)c2=O)CC1)c1cn2c(n1)CCCC2` [Example 109, N-{cis-4-[6-fluoro-1-[4′-(morpholin-4-ylmethyl)biphenyl-3-yl]-2,4-dioxo-1,4-dihydropyrido[2,3-d]pyrimidin-3(2H)-yl]cyclohexyl}-5,6,7,8-tetrahydroimidazo[1,2-a]pyridine-2-carboxamide], the IC50 is 0.0158 nM.
Turning to `CN(C)CCN(C)Cc1ccc(-c2cccc(-n3c(=O)n([C@H]4CC[C@@H](NC(=O)C5(N(C)C)CC5)CC4)c(=O)c4cc(F)cnc43)c2)cc1` [Example 110, 1-(dimethylamino)-N-{cis-4-[1-(4′-{[[2-(dimethylamino)ethyl](methyl)amino]methyl}biphenyl-3-yl)-6-fluoro-2,4-dioxo-1,4-dihydropyrido[2,3-d]pyrimidin-3(2H)-yl]cyclohexyl}cyclopropanecarboxamide], the IC50 is 0.00794 nM.
